# Reference: patent US9688695B2, “Imidazothiadiazole and imidazopyrazine derivatives as protease activated receptor 4 (PAR4) inhibitors for treating platelet aggregation” (BRISTOL-MYERS SQUIBB COMPANY, priority 2012, dated 2017)
# Molecular target: PAR4 (Homo sapiens (Human), UniProt Q96RI0)
# Test: FLIPR assay in PAR4-expressing HEK293 cells (PAR4 antagonist activity, calcium mobilization)
# Type: cell-based
# Details: H-Ala-Phe(4-F)-Pro-Gly-Trp-Leu-Val-Lys-Asn-Gly-NH2-induced calcium mobilization
# Source text: The FLIPR assay is an exemplary in vitro assay for measuring the activity of the PAR4 antagonists of the present invention. In this assay, intracellular calcium mobilization is induced in PAR4 expressing cells by a PAR4 agonist and calcium mobilization is monitored. See, e.g., Example A.
# HEK293 cells stably expressing PAR4 were generated by a standard method of transfection of human […] cDNA expression vector or by RAGE technology from Athersys Inc. (Cleveland, Ohio) and selected based on PAR4 protein expression of mRNA expression. […] These cells express endogenous PAR1 and can elicit calcium signal upon stimulation with PAR1 agonist peptide.
# Counter screens for agonist activity and PAR1 antagonist activity were also performed. Briefly, HEK293 EBNA PAR4 clone 20664.1J cells were plated 24 hrs. prior to experiment in 384 well, Poly-D-Lysine coated, black, clear bottom plates (Greiner Bio-One, Monroe, N.C.). Cells were plated at 20,000 cells/well in […] growth medium and incubated at 37° C. with 5% CO2 overnight. At time of assay, media was replaced with 40 μl 1× Hank's Buffered Saline Solution (HBSS) (with 10 mM HEPES) and 20 μl test compound also diluted in 1×HBSS buffer was added at various concentrations and 0.67% DMSO final concentration on the FDSS for agonist measurement. The cells were then incubated for 30 minutes at room temperature followed by addition of 20 μl of agonist peptide for antagonist measurement on the FDSS.
# As indicated above, the FLIPR assay, an in vitro assay, measures the PAR4 antagonist activity of compounds tested as described in Example A. The PRP assay, an in vitro assay, measures the PAR4 antagonist assay of the compounds tested in the presence of plasma proteins and thrombin agonist as described in Example C.
# Sequence of PAR4 (Q96RI0 18-385): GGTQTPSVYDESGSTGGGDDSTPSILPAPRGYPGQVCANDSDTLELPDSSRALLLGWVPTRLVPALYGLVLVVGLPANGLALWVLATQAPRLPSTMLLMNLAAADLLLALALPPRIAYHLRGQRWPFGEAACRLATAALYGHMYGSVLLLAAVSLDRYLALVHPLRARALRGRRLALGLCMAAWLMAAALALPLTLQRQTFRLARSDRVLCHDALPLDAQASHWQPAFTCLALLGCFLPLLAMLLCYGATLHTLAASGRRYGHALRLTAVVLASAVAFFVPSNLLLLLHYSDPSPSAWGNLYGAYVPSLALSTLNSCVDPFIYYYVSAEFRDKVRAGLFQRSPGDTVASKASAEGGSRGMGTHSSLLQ
row,EC50,SMILES
1,0.36 nM,COc1cc(OCc2csc(N3CCS(=O)(=O)CC3)n2)c2cc(-c3cn4nc(OC)sc4n3)oc2c1 [Example 54]
2,0.37 nM,"COc1cc(OCc2csc(C3(O)CCCCC3)n2)c2cc(-c3cn4nc(OC)sc4n3)oc2c1 [Example 133, 1-(4-(((6-Methoxy-2-(2-methoxyimidazo[2,1-b][1,3,4]thiadiazol-6-yl)benzofuran-4-yl)oxy)methyl)thiazol-2-yl)cyclohexanol]"
3,92 nM,COc1cc(OCc2csc(-c3ccc(C(=O)NC4COC4)cc3)n2)c2cc(-c3cn4nc(OC)sc4n3)oc2c1 [Example 295]
4,0.43 nM,CCCN(C(=O)c1ccc(-c2nc(COc3cc(OC)cc4oc(-c5cn6nc(OC)sc6n5)cc34)cs2)cc1)C(C)C1CC1 (stereo not drawn) [Example 313]
5,0.72 nM,"COc1cc(OCc2csc(C3(F)CC(C)OC(C)C3)n2)c2cc(-c3cn4nc(OC)sc4n3)oc2c1 (stereo not drawn) [Example 122, 6-(4-((2-(4-Fluoro-2,6-dimethyltetrahydro-2H-pyran-4-yl)thiazol-4-yl)methoxy)-6-methoxybenzofuran-2-yl)-2-methoxy-imidazo[2,1-b][1,3,4]thiadiazole]"
6,0.67 nM,COc1cc(OCc2csc(-c3cccnc3)n2)c2cc(-c3cn4nc(OC)sc4n3)oc2c1 [Example 82]
7,0.89 nM,COc1cc(OCc2nc(-c3ccc(C(N)=O)cc3)sc2C)c2cc(-c3cn4nc(OC)sc4n3)oc2c1 [Example 70]
8,0.46 nM,"COc1cc(OCc2csc(C3(O)CCOCC3)n2)c2cc(-c3cn4nc([C@H](C)F)sc4n3)oc2c1 [Example 196, (S)-4-(4-(((2-(2-(1-Fluoroethyl)imidazo[2,1-b][1,3,4]thiadiazol-6-yl)-6-methoxybenzofuran-4-yl)oxy)methyl)thiazol-2-yl)tetrahydro-2H-pyran-4-ol]"
9,0.54 nM,COc1cc(OCc2nc(-c3ccc(C(=O)N(C)C)cc3)sc2C)c2cc(-c3cn4nc(C)ccc4n3)oc2c1 [Example 225]
10,2.2 nM,C=CCN(C)C(=O)c1ccc(-c2nc(COc3cc(OC)cc4oc(-c5cn6nc(OC)sc6n5)cc34)cs2)cc1 [Example 296]
11,0.99 nM,COc1cc(OCc2csc(N3C[C@@H](C)O[C@@H](C)C3)n2)c2cc(-c3cn4nc(C)ccc4n3)oc2c1 [Example 216]
12,1.7 nM,COc1cc(OCc2csc(NC(C)C)n2)c2cc(-c3cn4nc(C)ccc4n3)oc2c1 [Example 255]
13,1.9 nM,"COc1cc(OCc2nc(C3(F)CCOCC3)sc2C(F)(F)F)c2cc(-c3cn4nc(OC)sc4n3)oc2c1 [Example 132, 6-(4-((2-(4-Fluorotetrahydro-2H-pyran-4-yl)-5-(trifluoromethyl)thiazol-4-yl)methoxy)-6-methoxybenzofuran-2-yl)-2-methoxyimidazo[2,1-b][1,3,4]thiadiazole]"
14,0.42 nM,"COc1cc(OCc2csc(C3(O)CC(C)OC(C)C3)n2)c2cc(-c3cn4nc([C@H](C)F)sc4n3)oc2c1 (stereo partly drawn) [Example 198, 4-(4-(((2-(2-((S)-1-Fluoroethyl)imidazo[2,1-b][1,3,4]thiadiazol-6-yl)-6-methoxybenzofuran-4-yl)oxy)methyl)thiazol-2-yl)-2,6-dimethyltetrahydro-2H-pyran-4-ol]"
15,2 nM,COc1cc(OCc2csc(N3CCC(F)CC3)n2)c2cc(-c3cn4nc(C)ccc4n3)oc2c1 [Example 272]
16,6.2 nM,COc1cc(OCc2csc(N(C)C(C)C)n2)c2cc(-c3cn4nc(C)ccc4n3)oc2c1 [Example 280]
17,0.46 nM,COc1cc(OCc2nc(-c3ccnc(F)c3)sc2C)c2cc(-c3cn4nc(OC)sc4n3)oc2c1 [Example 71]
18,1.1 nM,COc1cc(OCc2csc(-c3ccc(F)cc3F)n2)c2cc(-c3cn4nc(OC)sc4n3)oc2c1 [Example 24]

row,EC50,SMILES
1,0.51 nM,"COc1cc(OCc2nc(C3(O)CCOCC3)sc2C)c2cc(-c3cn4nc([C@H](C)F)sc4n3)oc2c1 [Example 200, (S)-4-(4-(((2-(2-(1-Fluoroethyl)imidazo[2,1-b][1,3,4]thiadiazol-6-yl)-6-methoxybenzofuran-4-yl)oxy)methyl)-5-methylthiazol-2-yl)tetrahydro-2H-pyran-4-ol]"
2,2.6 nM,COc1cncc(-c2nc(COc3cc(OC)cc4oc(-c5cn6nc(OC)sc6n5)cc34)cs2)c1 [Example 79]
3,1.8 nM,COc1cc(OCc2csc(-c3ccc(C)nc3)n2)c2cc(-c3cn4nc(C)ccc4n3)oc2c1 [Example 231]
4,1.3 nM,COc1cc(OCc2csc(-c3cccc(C)c3)n2)c2cc(-c3cn4nc(OC)sc4n3)oc2c1 [Example 12]
5,0.58 nM,COc1cc(OCc2csc(C3CCC(F)(F)CC3)n2)c2cc(-c3cn4nc(C)ccc4n3)oc2c1 [Example 239]
6,0.4 nM,COc1cc(OCc2csc(-c3cccnc3F)n2)c2cc(-c3cn4nc(OC)sc4n3)oc2c1 [Example 78]
7,0.42 nM,COc1cc(OCc2nc(-c3cccc(COC(C)=O)c3)sc2C)c2cc(-c3cn4nc(OC)sc4n3)oc2c1 [Example 76]
8,7.7 nM,"COc1cc(OCc2csc(N3CCN(C)CC3)n2)c2cc(-c3cn4nc(C)ccc4n3)oc2c1 [Example 207, 4-(((6-Methoxy-2-(6-methylimidazo[1,2-b]pyridazin-2-yl)benzofuran-4-yl)oxy)methyl)-2-(4-methylpiperazin-1-yl)thiazole]"
9,1.4 nM,COc1cc(OCc2csc(N3CCC4(CC3)CC4)n2)c2cc(-c3cn4nc(C)ccc4n3)oc2c1 [Example 278]
10,0.43 nM,"COc1cc(OCc2csc(-c3cnco3)n2)c2cc(-c3cn4nc(OC)sc4n3)oc2c1 [Example 117, 5-(4-(((6-methoxy-2-(2-methoxyimidazo[2,1-b][1,3,4]thiadiazol-6-yl)benzofuran-4-yl)oxy)methyl)thiazol-2-yl)oxazole]"
11,0.62 nM,"COc1cc(OCc2csc(C3(c4cccc(Cl)c4)CCOCC3)n2)c2cc(-c3cn4nc(OC)sc4n3)oc2c1 [Example 155, 6-(4-((2-(4-(3-Chlorophenyl)tetrahydro-2H-pyran-4-yl)thiazol-4-yl)methoxy)-6-methoxybenzofuran-2-yl)-2-methoxyimidazo[2,1-b][1,3,4]thiadiazole]"
12,0.31 nM,COc1cc(OCc2csc(C(C)(O)C3CCCCC3)n2)c2cc(-c3cn4nc(OC)sc4n3)oc2c1 (stereo not drawn) [Example 142]
13,0.61 nM,COc1cc(OCc2csc(N3CCSCC3)n2)c2cc(-c3cn4nc(C)ccc4n3)oc2c1 [Example 217]
14,3.4 nM,COc1cc(OCc2csc(-c3ccccc3Cl)n2)c2cc(-c3cn4nc(OC)sc4n3)oc2c1 [Example 16]
15,0.85 nM,"COc1nn2cc(-c3cc4c(OCc5csc(-c6ccc(Cl)cc6)n5)cc(Cl)cc4o3)nc2s1 [Example 188, 6-(6-Chloro-4-((2-(4-chlorophenyl)thiazol-4-yl)methoxy)benzofuran-2-yl)-2-methoxyimidazo[2,1-b][1,3,4]thiadiazole]"
16,1.1 nM,"COc1cc(OC(C)c2csc(-c3ccccc3)n2)c2cc(-c3cn4nc(OC)sc4n3)oc2c1 (stereo not drawn) [Example 83, 2-Methoxy-6-(6-methoxy-4-(1-(2-phenylthiazol-4-yl)ethoxy)benzofuran-2-yl)imidazo[2,1-b][1,3,4]thiadiazole]"
17,2.3 nM,COc1cc(OCc2csc(-c3ccc(C#N)cc3)n2)c2cc(-c3cn4nc(OC)sc4n3)oc2c1 [Example 64]
18,0.76 nM,"COc1cc(OCc2csc(-c3ccccc3)n2)c2cc(-c3cn4nc(C)ccc4n3)oc2c1 [Example 203, 4-(((6-Methoxy-2-(6-methylimidazo[1,2-b]pyridazin-2-yl)benzofuran-4-yl)oxy)methyl)-2-phenylthiazole]"
